We go through 3 compounds from patent US6544967B2, “Method for inhibiting bone resorption” (Merck & Co., Inc., priority 1997, dated 2003).

The series relates to canine esophagus tissue. In words: Esophageal irritation potential, dog model (esophageal infusion in simulated gastric juice, histopathology). The format is in vivo. The conditions noted are these: for Histopathology of esophagus (photomicrographs): 50 mL; for Esophageal irritation potential: low dosages on consecutive days (Group 7 risedronate, Group 8 tiludronate). The method, then: The esophageal irritation potential of the bisphosphonates is evaluated using a dog model.
The following solutions are prepared:
(1) simulated gastric juice (pH about 2), i.e. the control solution.
(5) simulated gastric juice (pH about 2) containing about 0.20 mg/mL of risedronate sodium on a risedronic acid active basis.
(6) simulated gastric juice (pH about 2) containing about 4.0 mg/mL of tiludronate disodium on a tiludronic acid active basis.
The simulated gastric juice is prepared by dissolving about 960 mg of pepsin (L-585,228000B003, Fisher Chemical) in about 147 mL of 0.90 (wt %) NaCl (aqueous), adding about 3 mL of 1.0 M HCl (aqueous), and adjusting the volume to about 300 mL with deionized water. The pH of the resulting solution is measured and if necessary is adjusted to about 2 using 1.0 M HCl (aqueous) or 1.0 M NaOH (aqueous).
The animals used in the experiments are anesthetized and administered about 50 mL of the appropriate solution over about 30 minutes by infusion into the esophagus using an infusion pump and a rubber catheter. The following treatment experiments are run:
Group 1: This control group contains four animals. Each animal is administered a dosage of about 50 mL of simulated gastric juice [solution (1)] on each of five consecutive days. The animals are sacrificed immediately after the last dose is administered.
Group 2: This group contains four animals. […] The animals are sacrificed immediately after the last dose is administered.
Group 3: This group contains five animals. […] The animals are sacrificed about 24 hours after the dose is administered.
Group 4: This group contains five animals. […] The animals are sacrificed about 7 days after the dose is administered.
Group 5: This group contains six animals. […] The animals are administered a total of four dosages. The animals are sacrificed about 7 days after the last dose is administered.
Group 6: This group contains six animals. […] The animals are administered a total of eight dosages. The animals are sacrificed about four days after the last dose is administered.
Group 7: This group contains eight animals. Each animal is administered a dosage of about 50 mL of simulated gastric juice containing about 0.20 mg/mL of risedronate [solution (5)] on each of five consecutive days. The animals are sacrificed immediately after the last dose is administered.
Group 8: This group contains four animals. Each animal is administered a dosage of about 50 mL of simulated gastric juice containing about 4.0 mg/mL of tiludronate on each of five consecutive days. The animals are sacrificed immediately after the last dose is administered.
The esophagus from each sacrificed animal is removed and prepared for histopathology using standard techniques by embedding the tissue in paraffin, staining with hematoxylin and eosin. The sections are examined microscopically.

With `NCCCC(O)(P(=O)(O)O)P(=O)(O)O` [Alendronate, 4-amino-1-hydroxybutylidene-1,1-bisphosphonic acid monosodium trihydrate], the Histo-pathology result (Group 2 (n = 4): 0.20 mg/mL, 50 mL in simulated gastric juice pH about 2, 1X daily for 5 days, sacrifice immediately after last dosing, monosodium trihydrate) was “deep ulceration of the epithelial surface and marked submucosal inflammation and vacuolation”; the Histo-pathology result (Group 3 (n = 5): 0.80 mg/mL, 50 mL in simulated gastric juice, 1X, sacrifice 24 hours after dosing, monosodium trihydrate) was “intact epithelial surface with very slight submucosal inflammation and vacuolation”; the Histo-pathology result (Group 4 (n = 5): 0.80 mg/mL, 50 mL in simulated gastric juice, 1X, sacrifice 7 days after dosing, monosodium trihydrate) was “intact epithelium with either minimal inflammation (two of the five animals) or no inflammation (three of the five animals) and no vacuolation”; the Histo-pathology result (Group 5 (n = 6): 0.80 mg/mL, 50 mL in simulated gastric juice, 1X weekly for a total of 4 doses, sacrifice 7 days after last dosing, monosodium trihydrate) is “normal with an intact epithelium and absence of inflammatory cells in the submucosa”. The “Histopathology of esophagus (photomicrographs)” value (Group 6: 0.40 mg/mL, twice per week for four weeks (eight dosages), sacrifice about four days after last dose) was “deep ulceration of the epithelial surface and marked submucosal inflammation and vacuolation”.

For `O=P(O)(O)C(Sc1ccc(Cl)cc1)P(=O)(O)O` [Tiludronate, (4-chlorophenyl)thiomethane-1,1-disphosphonic acid], the Esophageal irritation potential entry is “high”. Besides, the “Histopathology of esophagus (photomicrographs)” value (Group 8: 4.0 mg/mL, five consecutive days, sacrifice immediately after last dose) was “slight ulceration of the epithelial surface and slight submucosal inflammation and vacuolation”.

Regarding `O=P(O)(O)C(O)(Cc1cccnc1)P(=O)(O)O` [Risedronate, 1-hydroxy-2-(3-pyridinyl)-ethylidene-1,1-bisphosphonic acid], the Esophageal irritation potential result is listed as “high”. Where the note is “Group 7 (n = 8): 0.20 mg/mL, 50 mL in simulated gastric juice, 1X daily for 5 days, sacrifice immediately after last dosing”, the Histo-pathology entry was “deep ulceration of the epithelial surface and marked submucosal inflammation and vacuolation”.
